This series deals with TA98. As to conditions: for BMD50L / BMD50U: CES 0.5.
Where [1] appears, read: TA98, 10% hamster liver S9, preincubation 30 min.
Where [2] appears, read: TA98, 10% hamster liver S9, preincubation 60 min.
The mark [3] stands for this setting: TA98, 10% rat liver S9, preincubation 30 min.
Setting [4] is: TA98, 10% rat liver S9, preincubation 60 min.
Setting [5] is: TA98, 30% hamster liver S9, preincubation 30 min.
The mark [6] stands for this setting: TA98, 30% hamster liver S9, preincubation 60 min.
[7] abbreviates: TA98, 30% rat liver S9, preincubation 30 min.
The mark [8] stands for this setting: TA98, 30% rat liver S9, preincubation 60 min.
Where [9] appears, read: TA98, without S9, preincubation 30 min.
Setting [10] is: TA98, without S9, preincubation 60 min.

These results are taken from publication PMC11393638 (Regulatory toxicology and pharmacology : RTP, 2023).

Like-named read-outs stand apart in the source and are kept apart here.

`CC(C)N(CC(O)COc1cccc2ccccc12)N=O` (stereo not shown) [NNP, N-nitroso propranolol]: the “Mutagenic response in the Ames test (overall)” value (TA98, 0–200 μg/plate, preincubation method) was “mutagenic both in the presence and absence of S9”. Besides, the BMD50L by setting is: under setting [1], 5.7 μg/plate; under setting [2], 6.9 μg/plate; under setting [3], 7.9 μg/plate; under setting [4], 7.2 μg/plate; under setting [5], 12.8 μg/plate; under setting [6], 18.3 μg/plate. Moreover, the BMD50L is given as 16.2 μg/plate under setting [7], 22.4 μg/plate under setting [8], 9.8 μg/plate under setting [9] and 9.3 μg/plate under setting [10]. Moreover, the BMD50U reads like this: under setting [1], 10.1 μg/plate; under setting [2], 14.5 μg/plate; under setting [3], 13.0 μg/plate; under setting [4], 11.5 μg/plate; under setting [5], 21.4 μg/plate; under setting [6], 30.3 μg/plate. In addition, the BMD50U runs as follows: under setting [7], 27.0 μg/plate; under setting [8], 36.8 μg/plate; under setting [9], 24.7 μg/plate; under setting [10], 15.4 μg/plate. Also, under “dissolved in acetone, methanol, or DMSO”, the “Solvent effect on mutagenicity in TA98” value is reported as “very similar mutational responses”.
